This is an account of results in DBAASP.

SMILES strings stand for the structures. In brackets after ≈: the same amount, converted by molar mass. Several values for one entry are separate records, joined by “and”; a condition that tells them apart may be missing. Identical values can stand only once.

Test systems include Candida albicans SC5314; Acinetobacter baumannii; Staphylococcus aureus; Edwardsiella tarda; Escherichia coli JM109; Enterococcus faecalis VR; Enterococcus faecalis; Escherichia coli BW25113; Pseudomonas aeruginosa; Bacillus subtilis.
Holding throughout (assay): ≥ marks a high value that may be exact or a test limit, other limits are often not marked, values filed in µg/mL are converted to µM
The subject of assay [1] is Candida albicans CCARM 14020.
For assay [2], the system named is Candida albicans CCARM 14021.
In assay [3] the test system is Candida albicans CCARM 14022.
In assay [4] the test system is Bacillus subtilis ATCC 6633.
Assay [5] has as its system Klebsiella pneumoniae ATCC 27736.
Assay [6] deals with Pseudomonas aeruginosa ATCC 10662.
Assay [7] has as its system Pseudomonas aeruginosa ATCC BAA-427.
The test system of assay [8] is Staphylococcus epidermidis ATCC 1435.
Assay [9] has as its system Streptococcus iniae FP5228.
In assay [10] the test system is Vibrio alginolyticus KCCM 2928.
Assay [11] concerns Vibrio campbellii KCCM 40684.
Assay [12] relates to Vibrio harveyi ATCC 14126.
Assay [13] concerns Vibrio ordalii KCCM 41669.
The subject of assay [14] is Vibrio vulnificus KCTC 2982.
Assay [15] relates to Aeromonas salmonicida ATCC 33658.
Assay [16] relates to Campylobacter jejuni NCTC 11168.
Assay [17] has as its system Enterococcus faecalis ATCC 29212.
The test system of assay [18] is Escherichia coli ATCC 25922 ΔrfaC.
Assay [19] has as its system Escherichia coli ATCC 25922.
In assay [20] the test system is Escherichia coli ATCC BAA-2523.
Assay [21] relates to Escherichia coli BW25113 ΔrfaC.
Assay [22] concerns Flavobacterium psychrophilum 1947.
In assay [23] the test system is Listeria monocytogenes N22-2.
Assay [24] has as its system Pseudomonas aeruginosa ATCC 27853.
Assay [25] concerns Salmonella enterica subsp. enterica serovar Typhimurium LT2.
The subject of assay [26] is Staphylococcus aureus ATCC 29213.
For assay [27], the system named is Staphylococcus aureus ATCC 43300.
In assay [28] the test system is Yersinia ruckeri 392/2003.
For assay [29], the system named is Cryptococcus neoformans var. grubii H99.
In assay [30] the test system is Escherichia coli DH5alpha.
Assay [31] deals with Xanthomonas campestris pv. campestris.
Assay [32] concerns Xanthomonas oryzae pv. oryzae.
Assay [33] deals with Pseudomonas aeruginosa 0108.
The subject of assay [34] is Pseudomonas aeruginosa CGMCC 1.860.

The term MIC denotes the smallest concentration in the dilution series that meets the test's criterion for growth inhibition. A low value points to greater potency. `CC(C)C[C@H](NC(=O)CNC(=O)[C@H](Cc1cnc[nH]1)NC(=O)[C@H](Cc1cnc[nH]1)NC(=O)[C@H](CCCN=C(N)N)NC(=O)[C@H](CCCCN)NC(=O)[C@H](C)N)C(=O)N[C@@H](CC(N)=O)C(=O)N[C@@H](CS)C(=O)N[C@@H](C)C(=O)N[C@@H](CCCCN)C(=O)NCC(=O)N[C@H](C(=O)N[C@@H](CC(C)C)C(=O)N[C@@H](C)C(N)=O)C(C)C` [AKRHHGLNCAKGVLA]: the MIC was 14.4 µM (≈ 22.6 µg/mL) in assay [1], 3.59 µM (≈ 5.65 µg/mL) in assay [2], 3.59 µM (≈ 5.65 µg/mL) in assay [3] and 14.4 µM (≈ 22.6 µg/mL) in the assay on Candida albicans SC5314.

Turning to `CC[C@H](C)[C@H](NC(=O)CNC(=O)[C@H](CCCN=C(N)N)NC(=O)[C@H](Cc1ccccc1)NC(=O)[C@@H](NC(=O)[C@H](Cc1cnc[nH]1)NC(=O)[C@H](Cc1cnc[nH]1)NC(=O)[C@H](Cc1ccccc1)NC(=O)[C@@H](N)Cc1ccccc1)[C@@H](C)CC)C(=O)N[C@H](C(=O)N[C@@H](Cc1cnc[nH]1)C(=O)N[C@H](C(=O)NCC(=O)N[C@@H](CCCCN)C(=O)N[C@H](C(=O)N[C@@H](C)C(=O)N[C@@H](Cc1cnc[nH]1)C(=O)N[C@@H](CCCN=C(N)N)C(=O)N[C@@H](CC(C)C)C(=O)N[C@H](C(=O)N[C@H](C(=O)NCC(N)=O)[C@@H](C)O)C(C)C)[C@@H](C)O)C(C)C)C(C)C` [FFHHIFRGIVHVGKTAHRLVTG], the minimal inhibitory concentration (MIC) in the assay with Acinetobacter baumannii stood at 1.23 µM (≈ 3.1 µg/mL); in assay [4], 8 µM (≈ 20.2 µg/mL); in assay [5], 8 µM (≈ 20.2 µg/mL); in assay [6], 9.88 µM (≈ 25 µg/mL); in [7] it was 12 µM (≈ 30.3 µg/mL); against Staphylococcus aureus, 1.23 µM (≈ 3.1 µg/mL). In addition, the minimal inhibitory concentration (MIC) in assay [8] came out at 0.593 µM (≈ 1.5 µg/mL).

As to `CC[C@H](C)[C@H](NC(=O)[C@H](C)NC(=O)[C@H](Cc1cnc[nH]1)NC(=O)CNC(=O)[C@@H](NC(=O)CNC(=O)[C@H](Cc1cnc[nH]1)NC(=O)[C@H](CC(C)C)NC(=O)[C@H](CC(C)C)NC(=O)[C@H](CCSC)NC(=O)CNC(=O)[C@H](CC(C)C)NC(=O)[C@H](Cc1ccccc1)NC(=O)CNC(=O)[C@H](CCC(=O)O)NC(=O)CN)C(C)C)C(=O)N[C@@H](Cc1cnc[nH]1)C(=O)NCC(=O)N[C@@H](CC(C)C)C(=O)N[C@H](C(=O)N[C@@H](Cc1cnc[nH]1)C(=O)NCC(=O)N[C@@H](CCCCN)C(=O)O)[C@@H](C)CC` [GEGFLGMLLHGVGHAIHGLIHGK], the MIC in the assay with Edwardsiella tarda was no less than 354 µM; in the assay with Escherichia coli JM109 it was 2.72 µM (≈ 6.4 µg/mL); in assay [9], 0.9 µM (≈ 2.12 µg/mL); in assay [10], 1.31 µM (≈ 3.07 µg/mL); in assay [11] it was 1.9 µM (≈ 4.47 µg/mL); in [12], 0.9 µM (≈ 2.12 µg/mL). For the same compound, the minimum inhibitory concentration (MIC) in [13] is 0.9 µM (≈ 2.12 µg/mL); in assay [14], 5.52 µM (≈ 13 µg/mL).

`CC[C@H](C)[C@H](NC(=O)[C@H](CC(C)C)NC(=O)[C@H](CCCCN)NC(=O)[C@H](CC(C)C)NC(=O)[C@H](CC(C)C)NC(=O)[C@H](CCCCN)NC(=O)[C@H](CCCN=C(N)N)NC(=O)[C@H](Cc1ccccc1)NC(=O)[C@H](CC(C)C)NC(=O)[C@H](CCCCN)NC(=O)[C@H](CCCN=C(N)N)NC(=O)[C@H](CC(C)C)NC(=O)[C@@H](N)CCCCN)C(=O)N[C@@H](CCCN=C(N)N)C(=O)N[C@@H](CCCCN)C(=O)N[C@@H](CC(C)C)C(=O)N[C@@H](CC(C)C)C(=O)N[C@@H](CCCN=C(N)N)C(=O)O` [KLRKLFRKLLKLIRKLLR]: the MIC in assay [15] was found to be 19.4 µM (≈ 45.3 µg/mL); in assay [16], 0.856 µM (≈ 2 µg/mL); in assay [17], 4.84 µM (≈ 11.3 µg/mL); against Enterococcus faecalis VR it was 16 µM (≈ 37.4 µg/mL); against Enterococcus faecalis it was 16 µM (≈ 37.4 µg/mL); in [18], 6.85 µM (≈ 16 µg/mL). Further, the MIC in [19] is 9.69 µM and 16 µM; in [20], no less than 32 µM; in [21], 3.42 µM (≈ 8 µg/mL); in the assay on Escherichia coli BW25113 it was 6.85 µM (≈ 16 µg/mL); in [22], no less than 110 µM; in [23], 6.85 µM (≈ 16 µg/mL). Moreover, the minimal inhibitory concentration (MIC) in [24] is 9.69 µM and 16 µM; in the assay with Pseudomonas aeruginosa, 16 µM (≈ 37.4 µg/mL); in assay [25], 6.85 µM (≈ 16 µg/mL); in [26] it was 6.85 µM and 16 µM; in assay [27], 16 µM (≈ 37.4 µg/mL); in assay [28] it was 4.84 µM (≈ 11.3 µg/mL).

For `CC(C)C[C@H](NC(=O)CNC(=O)[C@H](CS)NC(=O)CNC(=O)[C@H](CC(N)=O)NC(=O)CNC(=O)[C@H](Cc1c[nH]c2ccccc12)NC(=O)CNC(=O)[C@H](CCCN=C(N)N)NC(=O)[C@H](C)NC(=O)[C@@H](N)C(C)C)C(=O)N[C@@H](Cc1ccccc1)C(=O)NCC(=O)N[C@@H](CCCCN)C(=O)NCC(=O)NCC(=O)O` [VARGWGNGCGLFGKGG], the MIC against Bacillus subtilis was no less than 100 µM; against Candida albicans SC5314, no less than 100 µM; in assay [29] it was no less than 100 µM; in [30] it was no less than 100 µM; in [24] it was greater than 100 µM; in [31], no less than 100 µM. The MIC in assay [32] is no less than 100 µM.

As to `CC[C@H](C)[C@H](NC(=O)[C@H](CCCCN)NC(=O)[C@H](CO)NC(=O)[C@H](CC(C)C)NC(=O)[C@@H](NC(=O)[C@H](CCCCN)NC(=O)[C@H](CCCCN)NC(=O)[C@@H](N)Cc1c[nH]c2ccccc12)[C@@H](C)CC)C(=O)N[C@@H](CCCCN)C(=O)N[C@@H](CCCCN)C(=O)N[C@@H](CC(C)C)C(=O)N[C@@H](CC(C)C)C(=O)N[C@@H](CCCCN)C(N)=O` [WKKILSKIKKLLK], the MIC is 6.25 µM (≈ 10.2 µg/mL) in [33] and 3.13 µM (≈ 5.09 µg/mL) in assay [34].
